Measured values from paper PMC9967700, “Metabolism-Guided Optimization of Tryptophanol-Derived Isoindolinone p53 Activators” (Pharmaceuticals, 2023).

Key:
[1] = target: T1, wt p53 core domain (DNA Binding Domain; p53DBD; residues 94–312) (Homo sapiens, UniProt P04637); assay: Differential scanning fluorimetry (DSF) thermostability; conditions: 13d 2.5 mM, MQ 2 mM; for Tm of the wt p53DBD: 5% DMSO, mean ± SD, three assays
T1 construct: residues 94–312; host or cells: E. coli BL21 (DE3)-[pLys-S]
Description: Expression of wt p53 core domain. The wt p53DBD was expressed in E. coli BL21 (DE3)-[pLys-S] in fusion with an N-terminal 21-residue tag containing the hexa-histidyl peptide (His6) and the thrombin recognition sequence, using the pET15b-based expression construct.
For protein expression 10 mL of an overnight (ON) culture was used to inoculate 1 L of LB medium supplemented with 1 mL of ampicillin 100 mg/mL and 1mL of zinc sulphate 100 mM. Culture medium was incubated at 37 °C, 140 rpm till an OD600nm of ~0.5. Protein expression was then induced by adding 0.5 mL of isopropyl β-D-1-thiogalactopyranoside (IPTG) 1M (Cfinal = 0.5 mM) and bacterial growth at 27 °C, 120 rpm ON. E. coli cells were pelleted by centrifugation for 10 min, 4000 rpm, at 4 °C. The cellular pellet was resuspended in 10 mL of Lysis buffer (Sodium phosphate 50 mM; NaCl 300 mM; glycerol 10%, pH 7.4) supplemented with 1mg/mL Lysozyme (Biochemica Applichem Panreac), 1 mM of phenylmethanesulfonyl fluoride (PMSF) (Merck), 5 µg of DNAse I (Panreac applichem) and 0.8% of Triton X-100 (Merck). After a first step of chemical lysis (30 min incubation, at 4 °C), cells were further disrupted by four cycles of sonication, at 4 °C, during 60 s at 50% duty free cycle on a Vibra Cell (Media Cibernetics). The lysate was subsequently cleared by centrifugation at 10,000 rpm, 40 min, at 4 °C and the supernatant containing the soluble proteins were collected.
Purification of human wt p53DBD and His6-tag removal. Immobilized Metal Affinity Chromatography (IMAC) was performed to purify the wt p53DBD using a nickel-nitrilotriacetic acid (Ni-NTA) agarose resin (QIAGEN). Briefly, 1 mL of Ni^2+ resin was pre-equilibrated using MilliQ water (3 × 1 mL) and Lysis buffer containing 10 mM imidazole (3 × 1 mL). The soluble fraction of cellular lysate was supplemented with 6.8 µL of β-mercaptoethanol and 33.2 µL of imidazole 3 M to obtain the final concentrations of […] and 10 mM, respectively. The lysate was added to the pre-equilibrated resin and protein binding was performed by incubation on an orbital shaker for one hour at 4 °C. The suspension was added to a 9 cm polypropylene conical column (Poly-Prep columns; BioRad) and protein purification was performed by gravity flow with an imidazole gradient consisting of three washing steps (2 × 5 mL of Lysis buffer, 20 mM imidazole; 2 × 5 mL of Lysis buffer, 50 mM imidazole; and 1 × 2.5 mL Lysis buffer, 75 mM imidazole) and an elution step with 5 × 500 µL of Lysis buffer, 250 mM imidazole. Protein eluted fractions were assessed by SDS-PAGE and Coomassie staining. Size exclusion chromatography was performed on the pooled protein eluted fractions, using an AKTA prime plus system (GE Healthcare) equipped with a UV detector (280 nm), a HiLoad 16/60, Superdex 200 prep grade column (GE Healthcare) and SEC buffer (25 mM potassium phosphate buffer, 150 mM NaCl, pH 7.5). The fractions corresponding to the wt p53DBD monomers were collected and treated with thrombin (8 units of thrombin/mg wt p53DBD). The thrombin cleavage was conducted for 18 h at rt at pH 7.4 in the assay buffer recommended by the supplier. Before and after digestion protein concentration was determined through Bradford method.
Thermostability of wt p53DBD core domain assessed by differential scanning fluorimetry (DSF). An amount of 5 μg of thrombin-cleaved wt p53DBD was incubated with testing compounds (2.5 mM) in 25 mM potassium phosphate buffer and 150 mM NaCl, pH 7.5 in a final volume of 50 µL containing 2 µL of 1 mM DTT or 1 mM TCEP to promote p53 core domain redox control, and Sypro Orange at 2.5x final concentration. The fluorescence was assessed on a C1000 Touch thermal cycler equipped with a CFX96 optical reaction module (BioRad) and the FRET channel (λexc 450–490 nm and λem 560–580 nm). Temperature was ramped from 20 to 90 °C with a rate of 0.2 °C/12 sec. The Tm values were calculated using Origin 8 Software. […]

[2] = In vitro reactions with bionucleophiles; conditions: with or without enzymatic conditions (S9 rat liver incubations)
Description: To a solution of compound 13d in acetonitrile (1.00 eq., 10.1 mg in 400 µL, 5.04 × 10^−2 M) reduced glutathione (4.00 eq. 25.2 mg, 82.00 µmol) dissolved in 400 µL of ABIC buffer 50 mM pH 7.4 was added. The reaction mixture was incubated for 24 h at 37 °C and monitored by LC-ESI-HRMS/MS.
To a solution of compound 13k in acetonitrile (1.00 eq., 4.3 mg in 200 µL, 3.92 × 10^−2 M) reduced glutathione (4.00 eq. 9.64 mg, 31.36 µmol) dissolved in 200 µL of ABIC buffer 50 mM pH 7.4 was added. The reaction mixture was incubated for 24 h at 37 °C and monitored by LC-ESI-HRMS/MS.
SLMP53-1_M5 (1.00 eq., 2.1 mg, dissolved in 150 µL of ACN) was added to a L-lysine (2 eq.) solution in 50 mM ABIC buffer pH 7.4. Following incubation for 24 h at 37 °C a solution of cyanoborohydride (2 eq) was added. The mixture was analyzed by LC-ESI(+)-HRMS/MS.

T1 sequence (P04637 94-312): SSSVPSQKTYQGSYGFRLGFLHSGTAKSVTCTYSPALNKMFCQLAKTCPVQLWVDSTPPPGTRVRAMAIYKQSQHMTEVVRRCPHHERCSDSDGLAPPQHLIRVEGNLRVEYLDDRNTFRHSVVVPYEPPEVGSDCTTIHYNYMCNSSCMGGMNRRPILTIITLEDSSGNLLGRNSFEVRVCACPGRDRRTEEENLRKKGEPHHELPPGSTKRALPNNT

CCCn1c(Br)c(C[C@H]2CO[C@]3(c4ccccc4)c4ccccc4C(=O)N23)c2ccccc21 [Compound 13d, (3S, 9bR)-3-((2-bromo-1-propyl-1H-indol-3-yl)methyl)-9b-phenyl-2,3-dihydrooxazolo[2,3-a]isoindol-5(9bH)-one]
ΔTm of the wt p53DBD ([1]; DTT 1 mM): did not increase the wt p53DBD Tm | Tm of the wt p53DBD ([1]; DTT (1 mM)): 40.51 ± 0.09 °C | ΔTm at 2500 µM ([1]; TCEP 1 mM): 10.4 °C | ΔTm of the wt p53DBD ([1]; TCEP 1 mM): 10.4 °C | Tm of the wt p53DBD ([1]; TCEP (1 mM)): 51.38 ± 0.38 °C | products of addition of GSH with concomitant loss of bromine [2]: no products compatible with the addition of GSH, and the concomitant loss of bromine, were detected
